Data from the METLIN SMRT retention time set (Domingo-Almenara et al. 2019).

assay: gradient 5% acetonitrile 3 min, to 50% in 2 min, to 85% in 15 min, held 3 min, 100 µL/min; conditions: column: Zorbax Extend-C18 2.1 x 50 mm; eluents: water / acetonitrile, 0.1% formic acid
Summary of the method: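 Data were gathered over 3 months by HPLC coupled to a quadrupole time-of-flight mass spectrometer, operated in positive and negative ionization mode. Mixtures of ~100 pure standards ran on a Zorbax Extend-C18 column (2.1 × 50 mm, 1.8 μm) at 100 μL/min, with water and acetonitrile each containing 0.1% formic acid and dead and dwell volumes of 40 μL and 900 μL. Retention time was read from adduct peaks picked by computer and checked manually.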

Going from CCOC(=O)N1CCN(c2ncc(S(=O)(=O)c3ccc(Cl)cc3)c(N)n2)CC1 to Cc1nc(-c2ccc(S(=O)(=O)N3CCN(c4ccccn4)CC3)cc2)co1, the RP-LC retention time falls from 910 s to 640 s.

Going from Cc1cc(=O)n(CC(=O)N2CCN(c3ccc(-c4ccccn4)nn3)CC2)cn1 to O=C(c1ccc(Nc2nc3ccccc3n3nnnc23)cc1)N1CCN(c2ccccn2)CC1, the RP-LC retention time rises from 531 s to 661 s.

Going from COc1ccc2c(c1)c(CN1CCC(C(=O)NCCN3CCN(C)CC3)CC1)cn2C to COc1ccc(CCNC(=O)CSc2cc(N3CCC(C(=O)NC4CC4)CC3)ncn2)cc1OC, the RP-LC retention time rises from 564 s to 624 s.

Compared with Cc1cc(F)ccc1N1C(=O)CN(S(C)(=O)=O)CC1(C)C(=O)NCc1ccc(F)cc1 (stereo not drawn), Cc1ccc(CN2CCN(C3CCN(S(=O)(=O)c4cc(F)ccc4C)CC3)C(=O)C2=O)cc1 is higher in RP-LC retention time: 814 s for the first, 920 s for the second.

First: Cc1cnc(C2CN(C(=O)C3(c4ccccc4)CC3)C2)n1Cc1cccnc1
Second: Cc1nn(C(C)C)c(C)c1S(=O)(=O)N1CCN(C(=O)C2(c3ccccc3)CC2)CC1
The RP-LC retention time of the first is lower: 585 s for the first, 890 s for the second.

Going from COCCN1C(=O)CCc2cc(NS(=O)(=O)c3ccc(C)c(C)c3)ccc21 to CCc1nn2c(CNS(=O)(=O)c3ccc(C)c(C)c3)c(-c3ccccc3)nc2s1, the RP-LC retention time rises from 816 s to 984 s.

First: COc1cc2c(C(=O)Oc3cccnc3)cn(-c3ccccc3)c(=O)c2cc1OC
Second: COc1cccc(NC(=O)c2cn(CC3CCCO3)cc3c(=O)n(-c4ccccc4)nc2-3)c1 (stereo not drawn)
The RP-LC retention time of the first is lower: 836 s for the first, 997 s for the second.

Going from Cc1cccc(-c2nnc(-c3nc(NCCc4c(C)noc4C)c4ccccc4n3)o2)c1 to Cc1cccc(-c2nnc(-c3nc(NCc4ccco4)c4ccccc4n3)o2)c1, the RP-LC retention time rises from 956 s to 1010 s.

Compared with Cc1cccc(-c2nc(Cn3nnc(-c4nc(-c5ccccc5Br)no4)c3C)c(C)o2)c1, Cc1cccc(-c2noc(Cn3ncn4nc(-c5ccccc5Cl)cc4c3=O)n2)c1 is lower in RP-LC retention time: 1310 s for the first, 1200 s for the second.

First: Cc1ccc(NC(=O)CN2C(=O)C3CCCCN3c3ccc(S(=O)(=O)N(C)C)cc32)nc1 (stereo not drawn)
Second: Cc1ccc2ncn(C3CCN(S(=O)(=O)c4ccc(F)cc4)CC3)c(=O)c2c1
The RP-LC retention time of the first is lower: 828 s for the first, 896 s for the second.

Going from CCOC(=O)CNC(=O)Nc1cc(F)c2nc(N3CCCC3)ccc2c1 to CN(C)C(=O)CN1CCN(c2cc(C(=O)O)c3cc(NC(=O)c4ccccc4F)ccc3n2)CC1, the RP-LC retention time falls from 590 s to 580 s.

First: COc1ccc(-n2c(CN3CCN(C(=O)NC(C)C)CC3)nc3cccnc32)cc1
Second: COc1ccc(CCC(=O)N2CCN(c3nccn3-c3cccc(Cl)c3)CC2)cc1
The RP-LC retention time of the first is lower: 595 s for the first, 617 s for the second.

Compared with O=C([C@@H]1C[C@H](F)CN1S(=O)(=O)Cc1cccc(Cl)c1)N1CCc2ccccc2C1, COc1ccc(F)cc1S(=O)(=O)N1C[C@@H]2C[C@H]1C[C@@H]2NC(=O)c1ccccc1 is lower in RP-LC retention time: 1000 s for the first, 786 s for the second.

First: O=C(CN1CCN(Cc2ccc(F)cc2Cl)C1=O)NCC1CCCCC1
Second: Cc1csc(-c2cc(S(=O)(=O)NCC3CCCCC3)cn2CC(=O)N2CCCCC2)n1
The RP-LC retention time of the first is lower: 927 s for the first, 1100 s for the second.

First: Cc1sc(NC(=O)CN(C)S(C)(=O)=O)c(C#N)c1C
Second: CCOC(=O)CC(=O)CSc1nc2sc(C)cc2c(=O)n1C
The RP-LC retention time of the first is lower: 719 s for the first, 961 s for the second.

Compared with CC(C)C(NC(=O)CCc1ccccc1)C(=O)Nc1nc2ccccc2[nH]1 (stereo not drawn), Cc1nc2cc(-c3noc(CCc4ccccc4)n3)ccc2o1 is higher in RP-LC retention time: 718 s for the first, 1050 s for the second.

Compared with Cc1ccc(-c2nc3sc(N4CCCCC4)nn3c2NC(=O)C2CCCO2)cc1 (stereo not drawn), O=C(c1sc(N2CCCCC2)nc1-c1ccccc1)c1c[nH]c2ccccc12 is higher in RP-LC retention time: 901 s for the first, 1080 s for the second.

Going from COc1ccc(CN2C=C(C(=O)OCc3noc(C4CCCCC4)n3)C(C)=NS2(=O)=O)cc1 to COc1ccc(-c2nc(NCCCN3CCCCC3C)c3ccccc3n2)cc1 (stereo not drawn), the RP-LC retention time falls from 1150 s to 579 s.

Compared with CC1Oc2ccc(-c3csc(NC(=O)C(C)(C)C)n3)cc2N(C)C1=O (stereo not drawn), CC(C)(C)c1nnc(NC(=O)C2CCN(C(=O)c3cccc(F)c3)CC2)s1 is lower in RP-LC retention time: 963 s for the first, 765 s for the second.

Compared with CC(C)c1ccc(-c2nc(C3CC(=O)N(c4ccc(F)c(Cl)c4)C3)no2)cc1 (stereo not drawn), CCc1ccc(-c2nc(-c3ccc4oc(C)nc4c3)no2)cc1 is lower in RP-LC retention time: 1290 s for the first, 1280 s for the second.

Compared with CC(=O)c1ccc(NC(=O)Cn2c(-c3cccnc3)nc3ccccc32)cc1, COC(=O)c1ccc(NC(=O)N2CC(Oc3cccc(-c4nc(C)no4)c3)C2)cc1 is higher in RP-LC retention time: 689 s for the first, 883 s for the second.

First: COCCCNC(=O)Cn1ncc2c(C)n(Cc3ccc(Cl)cc3)c(C)c2c1=O
Second: C=CCn1c(C)c(CC(=O)NCCOC)c(=O)n2nc(-c3ccccc3)nc12
The RP-LC retention time of the first is higher: 775 s for the first, 673 s for the second.

First: Cc1cnc(-c2ccccc2)n1CCNS(=O)(=O)N(C)C
Second: CCNS(=O)(=O)c1cccnc1Nc1ccccc1F
The RP-LC retention time of the first is lower: 572 s for the first, 948 s for the second.

First: CCc1cc(C(=O)Nc2ccccc2)nc2ccnn12
Second: COc1ccccc1-c1noc(C2CCCN2C(=O)Nc2ccccc2)n1 (stereo not drawn)
The RP-LC retention time of the first is higher: 960 s for the first, 848 s for the second.

Compared with CN(C)c1ncccc1NC(=O)c1cccc(C#N)c1, CC(=O)c1cccc(NC(=O)Cn2cccc2-c2nnc(C3CCC3)o2)c1 is higher in RP-LC retention time: 585 s for the first, 831 s for the second.

Compared with COc1cc(OC)c(OC)cc1CN(C)CCc1ccccn1, CCc1c(C(=O)OC)ncc2[nH]c3cc(OC)c(OC)cc3c12 is higher in RP-LC retention time: 593 s for the first, 702 s for the second.

Compared with CCNC(=O)N1CC(Oc2cccc(-c3nc(C)no3)c2)C1, NCCc1noc(-c2ccccc2)n1 is lower in RP-LC retention time: 705 s for the first, 580 s for the second.

First: Cc1cnc(-c2ccccc2C(C)C)nc1NCc1ccc(-n2ccnn2)cc1
Second: CCOc1ccc(-n2ccn3c(CCCC(=O)NCCc4c[nH]c5ccccc45)nnc3c2=O)cc1
The RP-LC retention time of the first is higher: 770 s for the first, 761 s for the second.

First: C[C@]12C=CC(=O)C=C1[C@@H](F)C[C@H]1[C@@H]3CC[C@](O)(C(=O)CO)[C@@]3(C)C[C@H](O)[C@@]12F
Second: Cc1ccnc(N2CCCC(C(=O)NCc3ccc(N(C)C)cc3)C2)n1 (stereo not drawn)
The RP-LC retention time of the first is higher: 660 s for the first, 561 s for the second.

Compared with Cc1cccc(N2CCn3c2nc2c3c(=O)n(CC(=O)O)c(=O)n2C)c1, CCCCCn1c(=O)c2c(nc3n2CCN3c2ccc(OC)cc2)n(C)c1=O is higher in RP-LC retention time: 689 s for the first, 1010 s for the second.

First: Cc1cc(C)n(CCNC(=O)CN2CCN(c3ccc4c(c3)OCCO4)C2=O)n1
Second: COc1ccc(CC(=O)N2CCCC2c2c(C)noc2C)cc1OC (stereo not drawn)
The RP-LC retention time of the first is lower: 616 s for the first, 696 s for the second.

Compared with c1ccc(Cn2cnnc2C2CCN(CC3CC3)CC2)cc1, O=C(Nc1ccc(Br)cc1)C1CCCN(c2nccnc2Oc2ccccc2)C1 (stereo not drawn) is higher in RP-LC retention time: 566 s for the first, 1140 s for the second.

First: CS(=O)(=O)N1CCC(C(=O)Nc2cccc(F)c2)Oc2ccc(Cl)cc21 (stereo not drawn)
Second: Cc1ccc(S(=O)(=O)N2CCCC2c2nc(-c3cccc(F)c3)no2)cc1Cl (stereo not drawn)
The RP-LC retention time of the first is lower: 982 s for the first, 1230 s for the second.

First: CCn1c(=O)c2ccccc2n(Cc2nc(-c3ccccc3Br)no2)c1=O
Second: CN1C(=O)C(c2c(-c3ccc4ccccc4c3)[nH]c3[nH]c(=O)[nH]c(=O)c23)c2ccccc21 (stereo not drawn)
The RP-LC retention time of the first is higher: 1020 s for the first, 721 s for the second.

Going from O=S(=O)(c1ccc(Cl)s1)N1CCc2nc(-c3ccc(Cl)cc3)ncc2C1 to COc1ccc(-c2ncc3c(n2)CCN(C(=O)Nc2ccc(Cl)cc2)C3)cc1, the RP-LC retention time falls from 1310 s to 978 s.

Compared with C#CCSc1nc2ccc([N+](=O)[O-])cc2s1, CCOC(=O)COc1cc(-c2ccc(C)cc2)nc2ccc(NC(=O)C3CC3)cc12 is lower in RP-LC retention time: 935 s for the first, 776 s for the second.

First: Cc1ccc(-n2c(N3CCCC(C(=O)Nc4ccc(F)cc4)C3)nc3ccsc3c2=O)cc1 (stereo not drawn)
Second: Cc1ccc(NC(=O)C2CCCN(C(=O)C3Sc4ccccc4NC3=O)C2)cc1 (stereo not drawn)
The RP-LC retention time of the first is higher: 959 s for the first, 741 s for the second.

First: CC(C)CN1CCN(C(=O)c2ccc(-c3ccnc(N4CCCC4)n3)cc2)CC1
Second: CC(=O)N1CCN(c2nc(C)cc(N3CCCCC3)n2)CC1
The RP-LC retention time of the first is lower: 587 s for the first, 598 s for the second.

Going from COc1ccc(-c2nnc(-c3cccnc3N3CCC4(CC3)OCCO4)o2)cc1 to COc1cccc(C2CC(c3ccc(C)c(C)c3)=NC3(CCN(C(C)=O)CC3)N2)c1O (stereo not drawn), the RP-LC retention time falls from 875 s to 694 s.

First: COc1ccc(NC(=O)N2CCCC(C)(C(=O)NCc3ccccc3)C2)cc1OC (stereo not drawn)
Second: COc1ccc(C2CC(=O)N(c3cccc(Br)c3)C(=O)C2)cc1OC
The RP-LC retention time of the first is lower: 846 s for the first, 876 s for the second.

First: Cc1cc(NC(=O)NC(=O)c2ccccc2NC(=O)CN)ccc1Oc1ncc(Br)cn1
Second: COCC(=O)Nc1cnc(-c2cccnc2)nc1
The RP-LC retention time of the first is higher: 653 s for the first, 554 s for the second.

First: CCC(C)N(CC(=O)N1CCc2sccc2C1COc1ccccc1C)C(=O)COC (stereo not drawn)
Second: COc1ccc(NC(=O)C2CC(=O)N(c3n[nH]c4cccc(F)c34)C2)c(OC)c1 (stereo not drawn)
The RP-LC retention time of the first is higher: 942 s for the first, 713 s for the second.

First: Cc1ccc(-n2cc(C(=O)NCCCOC(C)C)nn2)cc1
Second: CC(C)n1cnc2cc(CNC(=O)c3ccc(F)cc3Cl)ccc21
The RP-LC retention time of the first is higher: 810 s for the first, 619 s for the second.

Compared with c1cc(N2CCCCCC2)ncc1-c1noc(CN2CCCC2)n1, CSc1ncccc1-c1nnc(C)o1 is higher in RP-LC retention time: 586 s for the first, 712 s for the second.
